# According to ChEMBL document CHEMBL1153443, “Development of an in-capillary approach to nanoscale automated in vitro cytochromes p450 assays” (J Med Chem, 2009):
# Target: CYP2D6 (Homo sapiens, UniProt P10635)
# Assay: Inhibition of human recombinant CYP2D6 at 5 uM assessed as blockade of O-demethylation of dextromethorphan in to dextrophan by nanoscale automated in-capillary assay
# Type: ADME
# Settings: recombinant CYP2D6, probe dextromethorphan (O-demethylation to dextrorphan)
# Sequence of CYP2D6 (P10635 whole entry): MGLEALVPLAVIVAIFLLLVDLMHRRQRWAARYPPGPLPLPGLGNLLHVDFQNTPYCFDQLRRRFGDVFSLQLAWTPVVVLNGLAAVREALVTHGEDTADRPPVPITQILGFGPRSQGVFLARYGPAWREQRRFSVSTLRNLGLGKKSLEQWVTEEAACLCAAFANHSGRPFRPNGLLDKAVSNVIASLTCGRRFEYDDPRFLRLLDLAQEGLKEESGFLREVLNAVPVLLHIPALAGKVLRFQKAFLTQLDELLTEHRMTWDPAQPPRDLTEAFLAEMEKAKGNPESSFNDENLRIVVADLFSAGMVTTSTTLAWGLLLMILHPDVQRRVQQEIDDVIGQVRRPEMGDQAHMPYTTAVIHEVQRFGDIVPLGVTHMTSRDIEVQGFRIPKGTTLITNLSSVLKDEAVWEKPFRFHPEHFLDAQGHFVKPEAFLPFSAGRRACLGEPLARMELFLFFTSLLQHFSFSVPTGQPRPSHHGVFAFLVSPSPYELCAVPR
row,SMILES,inhibition at 5 µM [%]
1,CNCCC(Oc1ccc(C(F)(F)F)cc1)c1ccccc1 (configuration not stated) [FLUOXETINE],20
2,COc1ccc(C(CN(C)C)C2(O)CCCCC2)cc1 (configuration not stated) [VENLAFAXINE],0
